According to patent EP3305781A1, “CHEMICAL SUBSTANCES WHICH INHIBIT THE ENZYMATIC ACTIVITY OF HUMAN KALLIKREIN-RELATED PEPTIDASE 6 (KLK6)” (Deutsches Krebsforschungszentrum, priority 2016, dated 2018):
Where two headings read alike, the source gives them in different places.

Assays:
Experiment in all cases: Biochemical inhibition assay, fluorogenic substrate FSR-AMC
Factor Xa = Factor Xa (Homo sapiens, UniProt P00742)
Thrombin = Thrombin (Homo sapiens, UniProt P00734)
KLK6 = KLK6 (Homo sapiens, UniProt Q92876)
Trypsin = Trypsin (Homo sapiens, UniProt P07477)
[1] = read-out: Factor Xa IC50, Factor Xa 4 nM, 30 min incubation with inhibitor, FSR-AMC 20 µM, Tris pH 7.5
[2] = read-out: Thrombin IC50, Thrombin 9.8·10^-5 NIH unit/mL, 30 min incubation with inhibitor, FSR-AMC 20 µM, Tris pH 7.5
[3] = read-out: KLK6 IC50, KLK6 5 nM (produced in insect cells), 30 min incubation with inhibitor, FSR-AMC 20 µM, Tris pH 7.5
[4] = read-out: Trypsin IC50, Trypsin 0.88 ng/mL, 30 min incubation with inhibitor, FSR-AMC 20 µM, Tris pH 7.5

Sequence of Factor Xa (P00742 235-488 limits assumed): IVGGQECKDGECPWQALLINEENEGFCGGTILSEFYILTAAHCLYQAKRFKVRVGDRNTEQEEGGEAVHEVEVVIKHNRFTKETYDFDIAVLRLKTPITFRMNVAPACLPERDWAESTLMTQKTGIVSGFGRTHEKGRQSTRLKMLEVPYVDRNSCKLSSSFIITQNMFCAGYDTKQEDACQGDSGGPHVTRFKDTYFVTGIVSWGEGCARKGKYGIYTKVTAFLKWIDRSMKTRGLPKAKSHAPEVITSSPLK
Sequence of Factor Xa (P00742 41-179 partner limits assumed): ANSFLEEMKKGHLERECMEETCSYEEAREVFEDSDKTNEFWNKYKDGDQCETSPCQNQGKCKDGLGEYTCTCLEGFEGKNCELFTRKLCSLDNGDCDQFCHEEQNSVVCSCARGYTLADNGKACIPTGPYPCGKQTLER

Row | Structure (SMILES) | IC50 (Factor Xa) [µM] | IC50 (Thrombin) [µM] | IC50 (KLK6) [µM] | IC50 (Trypsin) [µM] | IC50 (Factor Xa; [1]) [µM] | IC50 (Thrombin; [2]) [µM] | IC50 (KLK6; [3]) [µM] | IC50 (Trypsin; [4]) [µM]
1 | Cc1nn(-c2ccc(C(F)(F)F)cc2)c(C)c1NC(=O)COC(=O)Cn1c(C)cc2ccccc21 [compound 4, 2-((3,5-dimethyl-1-(4-(trifluoromethyl)phenyl)-1H-pyrazol-4-yl)amino)-2-oxoethyl 2-(2-methyl-1H-indol-1-yl)acetate] | > 200 | > 200 | 2.89 | > 200 |  |  |  | 
2 | Cc1cc2ccccc2n1CC(=O)OCC(=O)Nc1ccccc1 [compound 24] |  |  |  |  | > 50 | > 50 | 9.96 | > 50
3 | Cc1nn(-c2ccccc2[N+](=O)[O-])c(C)c1NC(=O)COC(=O)Cn1c(C)cc2ccccc21 [compound 5, 2-((3,5-dimethyl-1-(2-nitrophenyl)-1H-pyrazol-4-yl)amino)-2-oxoethyl 2-(2-methyl-1H-indol-1-yl)acetate] | 50 | > 200 | 0.172 | 51 |  |  |  | 
4 | Cc1ccccc1NC(=O)COC(=O)Cc1c(C)[nH]c2ccccc12 [compound 78] |  |  |  |  | > 200 | > 200 | 4.73 | > 200
5 | COc1ccccc1CC(=O)OCC(=O)Nc1c(C)nn(-c2ccccc2)c1C [compound 54] |  |  |  |  | > 200 | > 200 | 4.85 | > 200
6 | Cc1nn(-c2ccccc2)c(C)c1NC(=O)COC(=O)Cc1cccs1 [compound 59] |  |  |  |  | > 200 | > 200 | 6.28 | > 200
7 | Cc1nn(-c2ccccc2)c(C)c1NC(=O)COC(=O)Cc1ccccc1I [compound 51] |  |  |  |  | > 200 | > 200 | 0.261 | > 200
8 | Cc1ccc(-n2nc(C)c(NC(=O)COC(=O)Cc3c[nH]c4ccccc34)c2C)cc1 [compound 13, 2-((3,5-dimethyl-1-(p-tolyl)-1H-pyrazol-4-yl)amino)-2-oxoethyl 2-(1H-indol-3-yl)acetate] | 162 | > 200 | 6.47 | 133 |  |  |  | 
9 | Cc1cc2ccccc2n1CC(=O)OCC(=O)Nc1ccc(N2CCOCC2)cc1 [compound 35] |  |  |  |  | > 50 | > 50 | 1.41 | > 50
10 | Cc1nn(-c2ccccc2)c(C)c1NC(=O)COC(=O)Cn1ccc2cc(Cl)ccc21 [compound 28] |  |  |  |  | > 50 | > 50 | 26 | > 50
11 | Cc1nn(-c2ccc(C#N)cc2)c(C)c1NC(=O)COC(=O)Cn1c(C)cc2ccccc21 [compound 6, 2-((1-(4-cyanophenyl)-3,5-dimethyl-1H-pyrazol-4-yl)amino)-2-oxoethyl 2-(2-methyl-1H-indol-1-yl)acetate] | > 200 | > 200 | 0.439 | > 200 |  |  |  | 
12 | Cc1nn(-c2ccc([N+](=O)[O-])cc2)c(C)c1NC(=O)COC(=O)Cn1c(C)cc2ccccc21 [compound 10, 2-((3,5-dimethyl-1-(4-nitrophenyl)-1H-pyrazol-4-yl)amino)-2-oxoethyl 2-(2-methyl-1H-indol-1-yl)acetate] | > 200 | > 200 | 0.994 | > 200 |  |  |  | 
13 | Cc1nn(-c2ccccc2)c(C)c1NC(=O)COC(=O)Cc1cccc(N)c1 [compound 55] |  |  |  |  | > 200 | > 200 | 17 | > 200
14 | Cc1nn(-c2ccccc2)c(C)c1NC(=O)COC(=O)Cc1ccccc1N=[N+]=[N-] [compound 82] |  |  |  |  | > 200 | > 200 | 27.3 | > 200
15 | COc1cccc(NC(=O)COC(=O)Cc2c(C)[nH]c3ccccc23)c1 [compound 79] |  |  |  |  | > 200 | > 200 | 6.05 | > 200
16 | Cc1nn(-c2ccccc2)c(C)c1NC(=O)COC(=O)Cn1c(C(C)C)cc2ccccc21 [compound 32] |  |  |  |  | > 50 | > 50 | 3.36 | > 50

Row | Structure (SMILES) | IC50 (Factor Xa) [µM] | IC50 (Thrombin) [µM] | IC50 (KLK6) [µM] | IC50 (Trypsin) [µM] | IC50 (Factor Xa; [1]) [µM] | IC50 (Thrombin; [2]) [µM] | IC50 (KLK6; [3]) [µM] | IC50 (Trypsin; [4]) [µM]
17 | Cc1nn(-c2ccccc2)c(C)c1NC(=O)COC(=O)Cc1ccccc1C(F)(F)F [compound 63] |  |  |  |  | > 200 | > 200 | 2.35 | > 200
18 | Cc1nn(-c2ccccc2)c(C)c1NC(=O)COC(=O)Cn1c(C)c(C)c2ccccc21 [compound 15] |  |  |  |  | > 200 | > 200 | 4.72 | 144
19 | Cc1nn(-c2ccccc2)c(C)c1NC(=O)COC(=O)Cc1cccc(F)c1 [compound 64] |  |  |  |  | > 200 | > 200 | 22 | > 200
20 | Cc1[nH]c2ccccc2c1CC(=O)OCC(=O)NCc1ncc[nH]1 [compound 85] |  |  |  |  | 157 | > 200 | 172 | > 200
21 | Cc1ccc(-n2nc(C)c(NC(=O)COC(=O)Cn3c(C)cc4ccccc43)c2C)cc1 [compound 9, 2-((3,5-dimethyl-1-(p-tolyl)-1H-pyrazol-4-yl)amino)-2-oxoethyl 2-(2-methyl-1H-indol-1-yl)acetate] | > 200 | 197 | 0.267 | 67.1 |  |  |  | 
22 | Cc1nn(-c2ccccc2)c(C)c1NC(=O)COC(=O)Cn1ccc2c(F)cccc21 [compound 25] |  |  |  |  | > 50 | > 50 | 30.6 | > 50
23 | Cc1nn(C)c(C)c1NC(=O)COC(=O)Cn1c(C)cc2ccccc21 [compound 2, 2-oxo-2-((1,3,5-trimethyl-1H-pyrazol-4-yl)amino)ethyl 2-(2-methyl-1H-indol-1-yl)acetate] | > 200 | > 200 | 1.25 | 71.5 |  |  |  | 
24 | Cc1nn(-c2ccccc2)c(C)c1NC(=O)COC(=O)Cc1ccco1 [compound 68] |  |  |  |  | > 200 | > 200 | 46 | > 200
25 | Cc1ccc(-n2nc(C)c(NC(=O)COC(=O)Cn3c(C(F)(F)F)cc4ccccc43)c2C)cc1 [compound 20] |  |  |  |  | > 200 | > 200 | 0.24 | > 200
26 | Cc1nn(-c2ccccc2)c(C)c1NC(=O)COC(=O)Cc1coc2ccccc12 [compound 41] |  |  |  |  | > 50 | > 50 | 31.3 | > 50
27 | Cc1nn(-c2ccccc2)c(C)c1NC(=O)C(C)OC(=O)Cn1c(C)cc2ccccc21 (racemic) [compound 37] |  |  |  |  | > 50 | > 50 | 1.48 | > 50
28 | Cc1nn(-c2ccc(NCCCCO)cc2)c(C)c1NC(=O)COC(=O)Cn1c(C)cc2ccccc21 [compound 19] |  |  |  |  | > 200 | > 200 | 0.264 | 21.3
29 | Cc1nn(-c2ccccc2)c(C)c1NC(=O)COC(=O)Cc1cc(Cl)sc1Cl [compound 61] |  |  |  |  | > 200 | > 200 | 2.33 | > 200
30 | Cc1nn(-c2ccc(N)cc2)c(C)c1NC(=O)COC(=O)Cn1c(C)cc2ccccc21 [compound 22] |  |  |  |  | > 200 | > 200 | 0.486 | 105
31 | COc1ccc(CC(=O)OCC(=O)Nc2c(C)nn(-c3ccccc3)c2C)cc1 [compound 52] |  |  |  |  | > 200 | > 200 | 32.8 | > 200
